Data as given in patent publication US12691175B2, “Drug transdermal delivery system” (Xiamen University, priority 2019, dated 2026).

What was measured:
[1] = system: venous thrombus; experiment: Rabbit ear thrombus model, topical low-molecular-weight heparin therapy; assay type: in vivo, New Zealand rabbit; details: 48 hours; for state of thrombus in blood vessel (slice, FIG. 7): 300 U/kg topical
Experimental: An experimental method: • A topical injection of thrombin is used to establish an animal model of a rabbit ear thrombus: hair of an ear of the New Zealand rabbit is carefully shaven off, a blood vessel section from an external ear vein with a length of about 2 cm and having fewer branches is selected, 40 U of the thrombin is injected into the blood vessel section, and a hemostatic clip is used to block a blood flow of the blood vessel section at a proximal end of a heart. After 2 hours, the blood is completely coagulated to form a venous thrombus, and the hemostatic clip is then loosen. A length of the venous thrombus is measured and recorded, and the rabbit ear successfully modeled is sliced into a slice by the cryostat microtome. After the slice is stained by a hematoxylin and eosin (HE) tissue staining method and fixed by the resin, and the slice is mounted for observation. With respect to the various administration methods, the rabbits successfully modeled are divided into a therapy group for a proximal venous thrombus and a therapy group for a distal venous thrombus, and the rabbits are topically treated by the low-molecular-weight heparin (300 U/kg rabbit body weight) for therapy. […] A pretreatment method is the same as described with respect to in vitro.

[2] = Staining of topical penetration sites of the skin with gentian violet solution; parameters: species or system nude mouse
Experimental: Staining of topical penetration sites of the skin: the nude mouse skin topically pretreated by three groups, including the sonophoresis group, the 2 mg spicule group, and the group using sonophoresis and then using the spicules (the method is the same as the aforementioned method), a gentian violet solution is added into the donor compartment, stained for 24 hours, and washed by an ethanol solution, and the residue liquid on the surface is absorbed with absorbent paper, a penetration situation of a surface of the stratum corneum layer for the staining solution is observed, the stratum corneum layer and the epidermal layer of the skin are then scrapped by a blade, and a penetration situation of the dermis layer for the staining solution is observed.

Compound	state of thrombus in blood vessel (slice, FIG. 7) ([1]; sonophoresis then spicules)	state of thrombus in blood vessel (slice, FIG. 7) ([1]; spicules alone)	thrombus dissolvability degree compared with intravenous injection (FIG. 8B) ([1]; distal venous thrombus, sonophoresis then spicules at distal end)	thrombus length variation (FIG. 8A) ([1]; proximal venous thrombus, sonophoresis then spicules)	infiltration of staining solution into the dermis layer ([2]; sonophoresis alone or spicules alone, stained 24 hours (FIGS. 6D and 6E))	infiltration of staining solution into the dermis layer ([2]; sonophoresis and spicules, stained 24 hours, stratum corneum and epidermal layer scraped off (FIG. 6F))
dalteparin [low-molecular-weight heparin]	almost completely dissolved	not completely dissolved	no significant difference	basically dissolved		
CN(C)c1ccc(C(=C2C=CC(=[N+](C)C)C=C2)c2ccc(N(C)C)cc2)cc1 [staining solution, gentian violet]					almost no residue staining solution in the dermis layer	a large amount of the staining solution can still infiltrate into the dermis layer
